Assay [1] concerns the target T1, TET2 (Pyrococcus horikoshii, UniProt O59196).
T1 construct: gene frvX; full length, 353 residues per subunit, pET41c in E. coli BL21(DE3), no tag mentioned (heat step, Resource Q, Superdex 200), 39 kDa subunit, 468 kDa homododecamer, two Zn per active site
Put plainly: MAS NMR 1H-15N peak doubling (G92, D94, H323). It is filed as binding. The following applies: active site; 50% (vol/vol) MPD, pH 7.6, ca. 28 °C; slow exchange.

Assay [2] addresses T1, TET2. Briefly: H-Leu-pNA hydrolysis, absorbance at […] nm. It is filed as biochemical. The settings on record: 6.4 mM H-Leu-pNA, 1, 5 or 20 mM histidine, pH 7.5, 50 °C.
In assay [3] the target is T2, TET2 (Pyrococcus horikoshii, UniProt O59196, H123Y).
T2 construct: gene frvX; full length, 353 residues per subunit, pET41c in E. coli BL21(DE3), no tag mentioned (heat step, Resource Q, Superdex 200), 39 kDa subunit, 468 kDa homododecamer, two Zn per active site
Put plainly: H-Leu-pNA hydrolysis, absorbance at […] nm. It is filed as biochemical. The following applies: 6.4 mM H-Leu-pNA, 1, 5 or 20 mM histidine, pH 7.5, 50 °C.

For assay [4], the target named is T1, TET2. Briefly: MAS NMR chemical-shift perturbation. Type of assay: binding. The settings on record: active site, non-covalent; isotope-labelled protein, ca. 28 °C.
Assay [5] has as its target T3, TET2 (Pyrococcus horikoshii, UniProt O59196, H123F).
T3 construct: gene frvX; full length, 353 residues per subunit, pET41c in E. coli BL21(DE3), no tag mentioned (heat step, Resource Q, Superdex 200), 39 kDa subunit, 468 kDa homododecamer, two Zn per active site
Put plainly: MAS NMR 1H-15N chemical-shift perturbation. It is filed as binding. The following applies: active site, non-covalent; isotope-labelled protein, ca. 28 °C.

T1 sequence (O59196 whole entry): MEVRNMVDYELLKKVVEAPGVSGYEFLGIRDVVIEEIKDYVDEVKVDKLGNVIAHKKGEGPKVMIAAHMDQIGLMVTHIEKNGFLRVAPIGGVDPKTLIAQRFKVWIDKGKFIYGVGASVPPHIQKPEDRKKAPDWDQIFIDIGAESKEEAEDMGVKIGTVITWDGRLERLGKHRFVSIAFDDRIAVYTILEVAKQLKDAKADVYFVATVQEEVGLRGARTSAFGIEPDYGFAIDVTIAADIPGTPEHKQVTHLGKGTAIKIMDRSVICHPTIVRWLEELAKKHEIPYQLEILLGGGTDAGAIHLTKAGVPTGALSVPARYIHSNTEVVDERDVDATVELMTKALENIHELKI
T2 sequence (O59196 whole entry H123Y): as the sequence (O59196 whole entry) above, with H123Y counted along it
T3 sequence (O59196 whole entry H123F): as the sequence (O59196 whole entry) above, with H123F counted along it

On to `CC(O)CC(C)(C)O` (centres unmarked) [2-methyl-2,4-pentanediol], for which, in assay [1], the “MAS NMR 1H-15N peak doubling (G92, D94, H323)” value is recorded as 2-methyl-2,4-pentanediol (MPD), a common crystallization agent used also to obtain solid-state NMR samples, interacts.
On to `N[C@@H](Cc1c[nH]cn1)C(=O)O` [histidine], for which the “activity with added free histidine” value in assay [2] is “abolishes the function of WT and mutant TET2”; in assay [3], “addition of free His not only does not increase the activity, but abolishes the function”.
Consider `CC(C)C[C@@H](N)[C@H](O)C(=O)N[C@H](C(=O)N[C@H](C(=O)N[C@@H](CC(=O)O)C(=O)O)C(C)C)C(C)C` [amastatin], for which the “MAS NMR chemical-shift perturbation” value in assay [4] is recorded as “MAS NMR experiments reveal the chemical-shift perturbations induced by this tightly bound inhibitor”. Moreover, in assay [5], the “MAS NMR 1H-15N chemical-shift perturbation” value was “We ensured that amastatin tightly binds to the H123F mutant”.

Source of the values: PMC8993905, “Functional control of a 0.5 MDa TET aminopeptidase by a flexible loop revealed by MAS NMR” (Nature Communications, 2022).
